# Molecular target: T1, AgORco+AgOR10 (Anopheles gambiae, UniProt Q7QCC7)
# T1 construct: expressed in transfected cells
# T1 sequence (Q7QCC7 1-478): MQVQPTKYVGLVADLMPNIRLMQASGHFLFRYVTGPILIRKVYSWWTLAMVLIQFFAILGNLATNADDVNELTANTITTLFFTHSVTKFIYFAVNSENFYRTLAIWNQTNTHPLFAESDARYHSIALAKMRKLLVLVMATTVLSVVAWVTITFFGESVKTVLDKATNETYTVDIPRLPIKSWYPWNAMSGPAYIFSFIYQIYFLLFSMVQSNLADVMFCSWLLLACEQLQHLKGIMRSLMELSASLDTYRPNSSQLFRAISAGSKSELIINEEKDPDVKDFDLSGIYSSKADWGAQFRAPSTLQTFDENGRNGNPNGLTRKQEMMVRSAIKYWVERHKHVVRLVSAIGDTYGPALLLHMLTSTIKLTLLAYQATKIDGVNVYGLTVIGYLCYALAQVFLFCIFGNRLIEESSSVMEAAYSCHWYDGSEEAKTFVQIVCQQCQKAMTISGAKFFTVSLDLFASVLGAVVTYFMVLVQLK
# Experiment: Fluo-4 Ca2+ imaging, HEK293 cells expressing Orco+AgOR10
# Type: cell-based
# Design: Orco 10 + Orco Angatonist % Reduction / Orco 10 + Orco Agonist % of control: concentration or dose not given beside the values
# Conditions: 10 + Orco; potentiator mode
# Description: (§1) For transient transfections, ORs were cloned into pCl (Promega) and transfected into Flp-In™ T-REx™293 cell lines (Invitrogen) with Fu GENE6 (Roche). For the creation of stable cell lines, a cell culture expression vector capable of expressing Orco in conjunction with a conventional OR, pcDNA5/FRT/TO (Invitrogen) was modified to create two individual expression cassettes each under the control of a separate CMV/Tet02 promoter and a BGH poly-adenylation signal. Cells (as above) were transfected with the modified pcDNA5 plasmid along with POG44 (a Flp recombinase expression plasmid) to facilitate site-specific recombination. Stable cell lines were selected using Hygromycin B (Invitrogen). Cells were maintained in DMEM (Invitrogen) supplemented with 10% Tetracycline-free FBS (HyClone) and 15 ng/ml Blasticidin. For fluorometric Ca2+ measurements, stable lines expressing ORs of interest were seeded at 20,000 cells/well in black wall, poly-lysine coated 384-well cell culture plates (Greiner) and treated with […] tetracycline (Sigma) overnight to induce OR expression. Cells were dye-loaded with 1.8 uM Fluo-4 AM (Molecular Probes), 2.5 mM Probenecid (Molecular Probes) in assay buffer (20 mM HEPES, IX HBSS) for 45 minutes at 37° C. in 5% CO2 prior to each assay. Ca^2+ mobilization was assayed in an FDSS6000 (Hamamatsu). Baseline readings were taken for 20 s before automated addition of compound previously diluted in DMSO and assay buffer. Ratios were described as Maximum/Minimum response and each response was normalized to the maximum responder.
# As part of an ongoing, cell based calcium imaging screen for novel small-molecule modulators of AgORs that might disrupt olfactory-driven mosquito behaviors (Rinker et al manuscript in preparation), the inventors identified a number of compounds that activated AgOR10+AgORco-expressing human embryonic kidney (HEK293) cells. One of these compounds, (FIG. 3 A) denoted here as VUAA1, elicited activity consistent with allosteric agonism and was pursued for its novel properties. The identity of VUAA1 was verified using high-resolution mass spectrometry (HRMS) as well as ^1H and ^13C NMR. […] As AgORco was the common element among these functional responses, the inventors postulated that VUAA1 was a potential AgORco agonist.
row,Structure (SMILES),Orco 10 + Orco Potentiator % increase [%]
1,CCCn1c(SCC(=O)NCCc2ccccc2)nnc1-c1cccnc1,12.58
2,CCn1c(SCCC(=O)O)nnc1-c1cccnc1,15.74
3,CCc1cccc(CC)c1NC(=O)CSc1nnc(C(C)C)n1CC,13.90

# Same assay, conditions: Orco 10 + Orco, antagonist mode
row,Structure (SMILES),Orco 10 + Orco Angatonist % Reduction [%]
1,O=C(CSc1nnc(-c2cccnc2)n1-c1ccc(SC(F)F)cc1)N1CCCc2ccccc21,24.77
2,Clc1ccc(CSc2nnc(-c3cccnc3)n2Cc2ccco2)c(Cl)c1,49.50
3,CCn1c(CNc2ccc(F)cc2)nnc1SCC(=O)N1CCCc2ccccc21,18.47
4,Cc1ccccc1-n1c(SCc2csc(Nc3ccccc3)n2)nnc1-c1cccnc1,56.98
5,Fc1ccc(CSc2nnc(-c3cccnc3)n2Cc2ccco2)cc1,16.64
6,CCOc1ccccc1-n1c(SCC(=O)N2CCCc3ccccc32)nnc1-c1cccnc1,29.87
7,O=C(CSc1nnc(-c2cccnc2)n1Cc1ccco1)N1c2ccccc2Sc2ccccc21 [drawing 490],46.34
8,CCn1c(CNC(=O)COc2ccc(C(C)C)cc2)nnc1SCC(=O)Nc1ccccc1F,11.35
9,CCn1c(COc2ccc(C)cc2)nnc1SCC(=O)Nc1cc(OC)ccc1OC,59.64
10,CCn1c(COc2ccc(OC)cc2)nnc1SCC(=O)Nc1cc(OC)ccc1OC,7.54
11,N#Cc1ccc(CSc2nnc(-c3cccnc3)n2-c2ccccc2)cc1,20.08
12,CC(C)c1ccccc1-n1c(SCC(=O)N2CCN(c3ccccc3)CC2)nnc1-c1cccnc1,42.29
13,c1ccc(CSc2nnc(-c3cccnc3)n2Cc2ccccc2)cc1,16.73
14,COc1cc(Cl)c(C)cc1CSc1nnc(-c2cccnc2)n1Cc1ccco1,28.40
15,CCOc1ccc(-n2c(SCc3cc(=O)oc4cc(C)ccc34)nnc2-c2cccnc2)cc1,12.48
16,CCn1c(SCC(=O)Nc2ccc3c(c2)OCCO3)nnc1-c1c[nH]c2ccccc12,17.90
17,Clc1ccccc1CSc1nnc(-c2cccnc2)n1Cc1ccco1,33.76
18,CCn1c(SCC(=O)Nc2ccc(OC)cc2)nnc1-c1ccc2[nH]c(C)c(C)c2c1,24.94
19,CCOc1ccc(-n2c(SCc3cc(=O)oc4cc(C)c(C(C)C)cc34)nnc2-c2cccnc2)cc1,48.28
20,CCn1c(SCC(=O)Nc2ccc(OCc3ccccc3)cc2)nnc1-c1ccco1,28.44
21,CCn1c(COc2cccc(OC)c2)nnc1SCC(=O)Nc1cc(OC)ccc1OC,30.79
22,CCn1c(SCC(=O)Nc2ccccc2C(=O)OC)nnc1-c1cccc(C)c1,16.03
23,CCOC(=O)c1c(NC(=O)CSc2nnc(-c3cccnc3)n2Cc2ccco2)sc(C)c1C,30.44
24,Cc1ccc(-n2c(SCC(=O)NCc3ccco3)nnc2-c2cccnc2)c(C)c1,15.51

row,Structure (SMILES),Orco 10 + Orco Angatonist % Reduction [%]
1,O=C(CSc1nnc(-c2cccnc2)n1Cc1ccco1)N1c2ccccc2Sc2ccccc21 [drawing 497],53.70
2,CC(C)c1ccccc1-n1c(SCc2cc(=O)oc3ccc4ccccc4c23)nnc1-c1cccnc1,26.15
3,CCn1c(COc2ccccc2)nnc1SCC(=O)Nc1cc(OC)ccc1OC,38.62
4,CCOC(=O)CN(C(=O)CSc1nnc(CNc2ccc(F)cc2)n1CC)c1ccc(F)cc1,8.24
5,CCc1ccc(NC(=O)CSc2nnc(-c3cccs3)n2CC)cc1,32.93
6,Cc1ccc(-n2c(SCC(=O)N3CCCc4ccccc43)nnc2-c2cccnc2)c(C)c1,26.04
7,CCN(CC)S(=O)(=O)c1ccc(-c2nnc(SCC(=O)N3c4ccccc4CC3C)n2CC)cc1 (centres unmarked),31.53
8,Cc1ccc(Nc2nc(CSc3nnc(-c4cccnc4)n3-c3ccccc3C)cs2)cc1,52.47
9,CCn1c(CNC(=O)COc2ccc(C(C)C)cc2)nnc1SCC(=O)Nc1ccccc1C(C)C,44.74
10,CCn1c(SCC(=O)N2c3ccccc3CCc3ccccc32)nnc1-c1ccco1,13.40
11,COc1cc(Cl)c(C)cc1NC(=O)CSc1nnc(-c2cccnc2)n1Cc1ccco1,25.31
12,CCn1c(SCC(=O)Nc2ccc(N(C)C)cc2)nnc1-c1cccc(C)c1,29.54
13,CCn1c(CNC(=O)c2ccco2)nnc1SCC(=O)Nc1cc(C(F)(F)F)ccc1Cl,15.97
14,CCOC(=O)CN(C(=O)CSc1nnc(COc2ccc(OC)cc2)n1CC)c1ccccc1,49.09
15,O=C(CSc1nnc(-c2cccnc2)n1Cc1ccco1)c1ccc(Br)cc1,7.93
16,Cc1ccc(-n2c(SCC(=O)NCc3ccc4c(c3)OCO4)nnc2-c2cccnc2)c(C)c1,31.14
17,Cc1ccc(Nc2nc(CSc3nnc(-c4cccnc4)n3-c3ccccc3F)cs2)cc1,47.91
18,CCOC(=O)CN(C(=O)CSc1nnc(CNc2ccc(C)cc2C)n1CC)c1ccccc1,57.34
19,CCn1c(COc2cccc(OC)c2)nnc1SCC(=O)Nc1ccccc1C(=O)OC,72.23
20,C=CCn1c(SCc2cccc3ccccc23)nnc1-c1cccnc1,13.43
21,CCn1c(CNC(=O)COc2ccc(C(C)C)cc2)nnc1SCC(=O)Nc1cc(F)ccc1C,31.15
22,CCOC(=O)c1cccc(NC(=O)CSc2nnc(CNc3ccc(C)cc3)n2CC)c1,62.21
23,CCn1c(CNC(=O)COc2ccc(C(C)C)cc2)nnc1SCC(=O)Nc1ccccc1,13.06
24,CCn1c(SCC(=O)N2c3ccccc3CCc3ccccc32)nnc1-c1ccc(OC)cc1,41.48

# Same assay, conditions: Orco 10 + Orco; potentiator mode
row,Structure (SMILES),Orco 10 + Orco Potentiator % increase [%]
1,CCn1c(SCC(=O)Nc2cc(C)ccc2C)nnc1-c1cnccn1,21.48
2,C=CCn1c(SCc2nc(N)nc(N(C)C)n2)nnc1-c1cccnc1,17.15
3,CCn1c(COc2ccc3c(c2)CCCC3)nnc1SCC(=O)Nc1ccc(C(=O)OC)cc1,18.19
4,O=C(CSc1nnc(-c2cccnc2)n1-c1ccccc1)NCc1ccc2c(c1)OCO2,16.29
5,Cc1ccccc1-n1c(SC(C)C(N)=O)nnc1-c1cccnc1 (centres unmarked),16.98
6,O=C(CSc1nnc(-c2cccnc2)n1-c1ccccc1)c1c[nH]c2ccccc12,13.63

# Molecular target: T2, AgORco+AgOR48 (Anopheles gambiae, UniProt Q7QCC7)
# T2 construct: expressed in transfected cells
# T2 sequence (Q7QCC7 1-478): T1 sequence (Q7QCC7 1-478)
# Experiment: Ca2+ imaging, HEK cells expressing AgORco+AgOR48
# Type: cell-based
# Conditions: AgORco co-expressed with AgOR48; read-out: EC50
# Description: as §1
# The ability of VUAA1 and its analogs to agonize representative ORco proteins from dipteran (Anopheles gambiae, AgORco), lepidopteran (Heliothis virescens, HvORco) and hymenopteran (Harpegnathos saltator, HsORco) orders was tested. […] Furthermore, the hierarchy of VUAA series potency was the same, irrespective of whether AgORco was co-expressed with AgOR65 or AgOR48 tuning ORs (FIG. 45). Without wishing to be bound by a particular theory, odorant ligands are thought to activate the complex via interaction with the tuning ORx and thereby affect ORco/ORx channel properties. […] These findings indicate VUAA-class OR co-modulators are viable compounds for further development as broad-spectrum insect control strategies, and VUAA4 can provide an advance in the pharmacological profile of VUAA-based compounds.
row,Structure (SMILES),EC50 [nM]
1,"CCCCCCC1CCCC(=O)O1 [D-undecalactone, reference compound]",260

# Same assay, conditions: Orco + 48, agonist; relative to VUAA1
row,Structure (SMILES),Orco + 48 Agonist % value Of VUAA1
1,C=CCn1c(SCC(=O)Nc2ccc(C(C)C)cc2)nnc1-c1ccncc1,<VUAA1

# Same assay, conditions: Orco + 48, agonist; stated in words relative to VUAA1
row,Structure (SMILES),Orco + 48 Agonist EC50 (relative to VUAA1)
1,C=CCn1c(SCC(=O)Nc2ccc(C(C)C)cc2)nnc1-c1ccncc1,<VUAA1

# Same assay, conditions: Orco + 48; comparison with VUAA1 in words
row,Structure (SMILES),Orco + 48 Agonist EC50 (given only relative to VUAA1)
1,C=Cc1ccc(NC(=O)CSc2nnc(-c3ccncc3)n2CC)cc1,<VUAA1

# Same assay, conditions: Orco + 48; relative to VUAA1
row,Structure (SMILES),Orco + 48 Agonist % value Of VUAA1
1,C=Cc1ccc(NC(=O)CSc2nnc(-c3ccncc3)n2CC)cc1,<VUAA1

# From US11484032B2, “Compositions for inhibition of insect sensing” (Vanderbilt University, priority 2011, dated 2022)
